In patent US20240327364A1, “THERAPEUTIC TARGETING OF GPR68 TO INDUCE FERROPTOSIS” (University Of Maryland, Baltimore, priority 2023, published 2024):

Experiments:
U138 = assay: 2D cell growth/viability; format: cell-based, human
Experimental: (§1) GBM neurospheres and low passage PDX models were plated in 96-well plates at 10,000 cells per well in 50 μL of neural stem cell media. The next day, the cells were treated with OGM2 compounds at the indicated concentrations, in triplicates, by adding an equal volume of medium containing 2× the final concentration of compound. Following 72 hours incubation under standard cell culture conditions, relative cell number was assessed using Cell Titer-Glo Luminescent Cell Viability Assay (Promega™) following the manufacturer's instructions. Luminescence was determined using a Cytation 5 reader and Gen5 software package (BioTek™). For U87 and U138 cell lines, one thousand cells were plated per well in a standard 96-well plate and allowed to attach for 24 hours before exposure to concentrations of vehicle, OGM2, or TMZ. Cells were treated for 72 hours and then stained with DAPI. A 10× magnification lens on a LionheartFX (BioTek™) was used to image the wells, and images were stitched together with Gen5 software (BioTek™). Automated nuclei counting was also done using the Gen5 software. Results reported as percent response relative to DMSO control. IC50 (the concentration causing 50% inhibition) was determined by GraphPad Prism™ version 6.07.
(§2) Temozolomide is the standard of care for glioblastoma but only works on 30% of patients. […]

U87 = assay: 2D cell growth/viability; format: cell-based, human; conditions: 72 hours
Experimental: as §1, §2

A549 = assay: Clonogenicity (crystal violet); format: cell-based; conditions: 8 days
Experimental: A549 lung cancer cells were plated at 300 cells per well in a 6-well plate and on the next day were treated with increasing concentrations of OGM2 for 8 days. The plate was fixed with formalin and stained with crystal violet. See FIG. 27B for results at the indicated concentrations.

ACVR1 = target: T1, ACVR1 (Homo sapiens, UniProt Q04771); assay: KinomeScan; format: binding; conditions: read-out: % Control
T1 construct: purchased DiscoveRx

ACVRLI = target: T2, ACVRLI (Homo sapiens, UniProt P37023); assay: KinomeScan; format: binding; conditions: read-out: % Control
T2 construct: purchased DiscoveRx

BTK = target: T3, BTK (Homo sapiens, UniProt Q06187); assay: KinomeScan; format: binding; conditions: read-out: % Control
T3 construct: purchased DiscoveRx (KinomeScan service)

CDK3 = target: T4, CDK3 (Homo sapiens, UniProt Q00526); assay: KinomeScan; format: binding; conditions: read-out: % Control
T4 construct: purchased DiscoveRx (KinomeScan service)
T4 sequence (Q00526 whole entry): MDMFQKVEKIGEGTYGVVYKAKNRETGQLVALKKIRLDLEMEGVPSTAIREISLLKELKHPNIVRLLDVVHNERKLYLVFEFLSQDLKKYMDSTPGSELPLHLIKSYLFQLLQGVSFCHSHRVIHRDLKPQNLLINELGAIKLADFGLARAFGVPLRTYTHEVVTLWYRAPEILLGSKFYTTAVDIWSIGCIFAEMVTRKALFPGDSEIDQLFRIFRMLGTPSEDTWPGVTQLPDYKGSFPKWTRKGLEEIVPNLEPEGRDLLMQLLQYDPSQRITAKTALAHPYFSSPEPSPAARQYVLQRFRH

CDK4-cyclinD1 = target: T5, CDK4-cyclinD1 (Homo sapiens, UniProt P11802); assay: KinomeScan; format: binding; conditions: read-out: % Control
T5 construct: purchased DiscoveRx (KinomeScan service)

CDK9 = CDK9 (Homo sapiens, UniProt P50750); assay: KinomeScan; format: binding; conditions: read-out: % Control
CDKL1 = CDKL1 (Homo sapiens, UniProt Q00532); assay: KinomeScan; format: binding; conditions: read-out: % Control
CHEK1 = CHEK1 (Homo sapiens, UniProt O14757); assay: KinomeScan; format: binding; conditions: read-out: % Control
CHEK1, sequence (O14757 whole entry): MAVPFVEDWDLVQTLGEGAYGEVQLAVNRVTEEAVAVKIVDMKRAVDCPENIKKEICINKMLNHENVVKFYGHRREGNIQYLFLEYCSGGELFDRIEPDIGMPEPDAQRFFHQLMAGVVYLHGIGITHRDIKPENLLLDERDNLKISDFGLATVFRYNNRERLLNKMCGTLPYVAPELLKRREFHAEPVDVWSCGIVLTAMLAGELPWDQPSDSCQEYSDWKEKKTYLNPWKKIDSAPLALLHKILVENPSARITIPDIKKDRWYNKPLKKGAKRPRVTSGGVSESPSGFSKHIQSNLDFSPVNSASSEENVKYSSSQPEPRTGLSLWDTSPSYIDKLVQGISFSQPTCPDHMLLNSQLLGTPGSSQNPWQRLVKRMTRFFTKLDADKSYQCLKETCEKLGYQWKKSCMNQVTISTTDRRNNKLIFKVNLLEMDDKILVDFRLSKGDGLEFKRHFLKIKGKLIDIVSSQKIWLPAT

CLK3 = CLK3 (Homo sapiens, UniProt P49761); assay: KinomeScan; format: binding; conditions: read-out: % Control
CLK3, sequence (P49761 whole entry): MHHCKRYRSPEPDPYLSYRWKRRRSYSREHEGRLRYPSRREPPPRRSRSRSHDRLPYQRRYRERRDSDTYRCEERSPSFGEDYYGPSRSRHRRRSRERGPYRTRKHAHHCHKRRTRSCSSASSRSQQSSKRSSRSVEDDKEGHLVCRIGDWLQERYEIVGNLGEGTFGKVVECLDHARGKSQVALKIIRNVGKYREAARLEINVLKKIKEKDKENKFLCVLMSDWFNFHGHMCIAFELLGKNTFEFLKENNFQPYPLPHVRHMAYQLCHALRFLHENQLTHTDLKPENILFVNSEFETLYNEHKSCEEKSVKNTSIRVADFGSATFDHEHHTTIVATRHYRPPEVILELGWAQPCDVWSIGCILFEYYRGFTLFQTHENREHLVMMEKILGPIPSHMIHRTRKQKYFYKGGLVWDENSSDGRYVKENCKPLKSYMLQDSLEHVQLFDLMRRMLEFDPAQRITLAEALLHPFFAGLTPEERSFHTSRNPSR

FAK = target: T6, FAK (Homo sapiens, UniProt Q05397); assay: KinomeScan; format: binding; conditions: read-out: % Control
T6 construct: purchased DiscoveRx (Fremont, CA)

HCK = target: T7, HCK (Homo sapiens, UniProt P08631); assay: KinomeScan; format: binding; conditions: read-out: % Control
T7 construct: purchased DiscoveRx (Fremont, CA)

HUNK = target: T8, HUNK (Homo sapiens, UniProt P57058); assay: KinomeScan; format: binding; conditions: read-out: % Control
T8 construct: purchased DiscoveRx (Fremont, CA)
T8 sequence (P57058 whole entry): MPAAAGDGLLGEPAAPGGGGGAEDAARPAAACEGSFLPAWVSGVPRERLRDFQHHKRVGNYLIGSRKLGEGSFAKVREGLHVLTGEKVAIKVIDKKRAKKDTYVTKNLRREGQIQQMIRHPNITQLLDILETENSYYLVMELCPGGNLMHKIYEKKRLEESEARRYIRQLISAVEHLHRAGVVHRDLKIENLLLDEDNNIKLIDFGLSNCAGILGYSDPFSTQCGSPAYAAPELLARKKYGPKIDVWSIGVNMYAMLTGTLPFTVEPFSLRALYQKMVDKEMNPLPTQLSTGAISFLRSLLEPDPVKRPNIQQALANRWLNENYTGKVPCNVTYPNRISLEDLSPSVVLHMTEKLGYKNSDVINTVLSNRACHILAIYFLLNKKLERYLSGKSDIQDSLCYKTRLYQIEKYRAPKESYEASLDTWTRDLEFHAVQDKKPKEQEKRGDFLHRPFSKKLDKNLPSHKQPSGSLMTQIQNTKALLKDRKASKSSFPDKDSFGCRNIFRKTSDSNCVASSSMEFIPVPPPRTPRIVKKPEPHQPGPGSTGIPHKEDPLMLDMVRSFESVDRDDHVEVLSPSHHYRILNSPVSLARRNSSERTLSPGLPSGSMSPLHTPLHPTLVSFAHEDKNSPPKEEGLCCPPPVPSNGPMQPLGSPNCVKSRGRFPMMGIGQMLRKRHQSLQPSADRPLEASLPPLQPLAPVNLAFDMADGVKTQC

KIT(A829P) = target: T9, KIT(A829P) (Homo sapiens, UniProt P10721, A829P); assay: KinomeScan; format: binding; conditions: read-out: % Control
T9 construct: purchased DiscoveRx
T9 sequence (P10721 26-976 A829P): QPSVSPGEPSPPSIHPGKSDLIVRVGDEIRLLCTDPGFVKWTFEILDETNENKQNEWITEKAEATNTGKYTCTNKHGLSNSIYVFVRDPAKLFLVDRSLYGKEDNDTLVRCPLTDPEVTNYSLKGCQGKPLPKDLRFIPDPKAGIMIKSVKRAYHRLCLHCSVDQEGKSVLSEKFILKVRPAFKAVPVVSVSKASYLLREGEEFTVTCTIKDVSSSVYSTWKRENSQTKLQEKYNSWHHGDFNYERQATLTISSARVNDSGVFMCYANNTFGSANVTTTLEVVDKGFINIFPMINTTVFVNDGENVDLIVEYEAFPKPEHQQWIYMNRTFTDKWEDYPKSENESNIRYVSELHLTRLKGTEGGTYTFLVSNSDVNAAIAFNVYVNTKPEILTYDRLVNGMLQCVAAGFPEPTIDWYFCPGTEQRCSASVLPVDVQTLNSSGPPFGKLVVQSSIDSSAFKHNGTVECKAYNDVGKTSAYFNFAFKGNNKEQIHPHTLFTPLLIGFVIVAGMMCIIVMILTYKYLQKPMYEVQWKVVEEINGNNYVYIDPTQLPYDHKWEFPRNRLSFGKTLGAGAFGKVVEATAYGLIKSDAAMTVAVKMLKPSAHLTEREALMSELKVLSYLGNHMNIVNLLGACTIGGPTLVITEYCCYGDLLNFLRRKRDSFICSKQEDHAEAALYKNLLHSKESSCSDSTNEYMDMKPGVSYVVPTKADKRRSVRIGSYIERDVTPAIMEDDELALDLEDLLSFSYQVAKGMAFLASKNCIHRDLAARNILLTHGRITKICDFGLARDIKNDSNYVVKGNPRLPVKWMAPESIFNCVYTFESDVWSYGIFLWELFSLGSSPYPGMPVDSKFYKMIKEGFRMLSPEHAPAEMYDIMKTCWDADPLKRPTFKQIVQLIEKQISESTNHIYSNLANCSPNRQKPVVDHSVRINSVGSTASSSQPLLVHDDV

LZK = target: T10, LZK (Homo sapiens, UniProt O43283); assay: KinomeScan; format: binding; conditions: read-out: % Control
T10 construct: purchased DiscoveRx

MAK = target: T11, MAK (Homo sapiens, UniProt P20794); assay: KinomeScan; format: binding; conditions: read-out: % Control
T11 construct: purchased DiscoveRx

NEK5 = target: T12, NEK5 (Homo sapiens, UniProt Q6P3R8); assay: KinomeScan; format: binding; conditions: read-out: % Control
T12 construct: purchased DiscoveRx

NEK6 = target: T13, NEK6 (Homo sapiens, UniProt Q9HC98); assay: KinomeScan; format: binding; conditions: read-out: % Control
T13 construct: purchased DiscoveRx

p38-beta = target: T14, p38-beta (Homo sapiens, UniProt Q15759); assay: KinomeScan; format: binding; conditions: read-out: % Control
T14 construct: purchased DiscoveRx

PIK3C2B = target: T15, PIK3C2B (Homo sapiens, UniProt O00750); assay: KinomeScan; format: binding; conditions: read-out: % Control
T15 construct: purchased DiscoveRx (Fremont, CA)

SgK110 = target: T16, SgK110 (Homo sapiens, UniProt P0C264); assay: KinomeScan; format: binding; conditions: read-out: % Control
T16 construct: purchased DiscoveRx (Fremont, CA)

TLK2 = target: T17, TLK2 (Homo sapiens, UniProt Q86UE8); assay: KinomeScan; format: binding; conditions: read-out: % Control
T17 construct: purchased DiscoveRx (Fremont, CA)

CGRP1 = target: T18, CGRP1 (Homo sapiens, UniProt O60894+Q16602); assay: GPCR Profiler; format: cell-based
T18 construct: host or cells: Chem-1 cells with Gα15
T18 sequence (Q16602 23-461): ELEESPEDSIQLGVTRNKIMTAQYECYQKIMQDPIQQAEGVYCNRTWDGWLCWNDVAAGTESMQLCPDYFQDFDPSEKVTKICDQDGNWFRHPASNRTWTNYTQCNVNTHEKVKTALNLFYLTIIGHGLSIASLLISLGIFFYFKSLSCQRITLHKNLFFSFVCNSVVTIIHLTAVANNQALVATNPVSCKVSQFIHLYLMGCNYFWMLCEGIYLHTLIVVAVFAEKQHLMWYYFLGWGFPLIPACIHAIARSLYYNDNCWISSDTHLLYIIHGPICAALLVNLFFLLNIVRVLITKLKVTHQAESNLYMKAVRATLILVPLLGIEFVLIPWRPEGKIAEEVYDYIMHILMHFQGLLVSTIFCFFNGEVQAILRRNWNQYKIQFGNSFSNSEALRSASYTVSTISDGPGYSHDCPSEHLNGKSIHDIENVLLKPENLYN
T18 sequence (O60894 27-148 partner): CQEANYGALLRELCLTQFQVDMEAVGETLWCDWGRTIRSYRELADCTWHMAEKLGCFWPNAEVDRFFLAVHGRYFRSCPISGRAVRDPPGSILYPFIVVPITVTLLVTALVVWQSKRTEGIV

GnRH = target: T19, GnRH (Homo sapiens, UniProt P30968); assay: GPCR Profiler; format: cell-based
T19 construct: host or cells: Chem-1 cells expressing Gα15
T19 sequence (P30968 whole entry): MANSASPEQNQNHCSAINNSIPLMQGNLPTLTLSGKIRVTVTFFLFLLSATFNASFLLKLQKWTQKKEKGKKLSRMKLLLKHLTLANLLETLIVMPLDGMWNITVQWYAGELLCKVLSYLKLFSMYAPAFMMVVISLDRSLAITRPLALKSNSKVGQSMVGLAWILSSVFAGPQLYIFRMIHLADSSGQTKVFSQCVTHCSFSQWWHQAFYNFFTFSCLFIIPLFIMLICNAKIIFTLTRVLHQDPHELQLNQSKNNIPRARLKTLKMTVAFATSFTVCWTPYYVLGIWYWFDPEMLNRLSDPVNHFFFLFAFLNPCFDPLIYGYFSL

GPR43 = target: T20, GPR43 (Homo sapiens, UniProt O15552); assay: GPCR Profiler; format: cell-based
T20 construct: host or cells: Chem-1 cells with promiscuous Gα15
T20 sequence (O15552 whole entry, species assumed): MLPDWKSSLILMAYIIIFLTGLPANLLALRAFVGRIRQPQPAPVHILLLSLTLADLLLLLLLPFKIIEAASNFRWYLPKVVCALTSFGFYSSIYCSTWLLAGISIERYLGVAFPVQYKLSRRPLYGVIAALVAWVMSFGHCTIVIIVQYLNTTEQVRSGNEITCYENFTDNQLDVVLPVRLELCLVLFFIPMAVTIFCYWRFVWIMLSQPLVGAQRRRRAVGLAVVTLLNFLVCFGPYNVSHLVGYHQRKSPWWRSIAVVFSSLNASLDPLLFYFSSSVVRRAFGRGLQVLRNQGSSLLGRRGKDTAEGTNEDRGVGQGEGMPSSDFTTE

GPR91 = target: T21, GPR91 (Homo sapiens, UniProt Q9BXA5); assay: GPCR Profiler; format: cell-based
T21 construct: host or cells: Chem-1 cells with promiscuous Gα15
T21 sequence (Q9BXA5 whole entry, species assumed): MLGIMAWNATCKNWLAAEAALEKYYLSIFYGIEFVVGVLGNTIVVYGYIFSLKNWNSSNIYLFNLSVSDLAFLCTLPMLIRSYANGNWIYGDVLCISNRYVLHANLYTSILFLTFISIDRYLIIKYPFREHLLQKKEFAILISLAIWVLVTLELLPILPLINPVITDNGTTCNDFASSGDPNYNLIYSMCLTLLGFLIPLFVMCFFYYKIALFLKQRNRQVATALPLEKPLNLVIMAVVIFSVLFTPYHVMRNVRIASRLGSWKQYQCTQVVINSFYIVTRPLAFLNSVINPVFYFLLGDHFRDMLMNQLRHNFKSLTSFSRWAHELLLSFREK

MC5 = target: T22, MC5 (Homo sapiens, UniProt P33032); assay: GPCR Profiler; format: cell-based
T22 construct: host or cells: Chem-1 cells with promiscuous Gα15
T22 sequence (P33032 whole entry): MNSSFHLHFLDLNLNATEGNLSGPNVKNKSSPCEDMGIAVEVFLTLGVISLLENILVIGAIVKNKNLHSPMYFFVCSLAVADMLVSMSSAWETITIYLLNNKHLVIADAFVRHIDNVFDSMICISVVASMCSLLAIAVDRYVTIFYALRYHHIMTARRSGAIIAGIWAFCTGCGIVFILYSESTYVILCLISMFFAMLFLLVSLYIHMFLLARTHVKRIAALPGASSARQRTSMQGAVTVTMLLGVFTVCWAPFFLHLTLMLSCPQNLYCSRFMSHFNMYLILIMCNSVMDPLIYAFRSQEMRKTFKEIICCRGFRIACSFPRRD

CCc1ccc2c(c1)C1(NN=C(c3ccccc3)S1)C(=O)N2 (stereo not shown) [OGM2]
cell growth in 2D culture (U138): caused dose-dependent inhibition of U138 cell growth | cell growth, comparison with Temozolomide (U87): more potent inhibitor of U87 cell growth in 2D cell assay than Temozolomide | clonogenicity (A549): reduced the clonogenicity of lung cancer cells

CCc1ccc2c(c1)C1(NN=C(c3cccc4ccccc34)S1)C(=O)N2 (stereo not shown) [OGM1, 5-ethyl-5′-naphthalen-1-ylspiro[1H-indole-3,2′-3H-1,3,4-thiadiazole]-2-one]
remaining binding at 10 µM (ACVR1): 100% | remaining binding at 10 µM (ACVRLI): 100% | remaining binding at 10 µM (BTK): 88% | remaining binding at 10 µM (CDK3): 81% | remaining binding at 10 µM (CDK4-cyclinD1): 69% | remaining binding at 10 µM (CDK9): 98% | remaining binding at 10 µM (CDKL1): 88% | remaining binding at 10 µM (CHEK1): 100% | remaining binding at 10 µM (CLK3): 100% | remaining binding at 10 µM (FAK): 88% | remaining binding at 10 µM (HCK): 96% | remaining binding at 10 µM (HUNK): 83% | remaining binding at 10 µM (KIT(A829P)): 72% | remaining binding at 10 µM (LZK): 100% | remaining binding at 10 µM (MAK): 90% | remaining binding at 10 µM (NEK5): 95% | remaining binding at 10 µM (NEK6): 100% | remaining binding at 10 µM (p38-beta): 100% | remaining binding at 10 µM (PIK3C2B): 95% | remaining binding at 10 µM (SgK110): 100% | remaining binding at 10 µM (TLK2): 71% | Antagonism (CGRP1; 10 uM): −2.3 | Agonism (CGRP1; 12.5 uM): 0.5 | Antagonism (GnRH; 10 uM): −2.6 | Agonism (GnRH; 12.5 uM): 0.5 | Antagonism (GPR43; 10 uM): 6.4 | Agonism (GPR43; 12.5 uM): −0.2 | Antagonism (GPR91; 10 uM): −5.4 | Agonism (GPR91; 12.5 uM): 1.2 | Antagonism (MC5; 10 uM): 13.9 | Agonism (MC5; 12.5 uM): 0.9
